From US20260250325A1, “Antiviral Polypeptide Membrane Fusion Inhibitor, and Preparation Method and Application Thereof” (priority 2025, published 2026)
Where a SMILES comes first, the peptide text is derived from it. The star is where a group is joined. Succinyl(4-O-cholesteryl) = CC(C)CCC[C@@H](C)[C@H]1CC[C@H]2[C@@H]3CC=C4C[C@@H](OC(=O)CCC(=O)*)CC[C@]4(C)[C@H]3CC[C@]12C

Assays:
hMPV-N46 (127-172) = target: T1, hMPV-N46 (127-172) (Human metapneumovirus, UniProt Q6WB98); assay: SPR affinity to hMPV-N46 coupled on CM5 chip; type: binding
T1 construct: hMPV-N46 (127-172)
Protocol: hMPV and hPIV were two viruses having a typical Class I fusion protein-F protein. An F protein precursor F0 was cracked into F1 and F2 subunits. […] When the compound flowed through a chip surface, changes in an SPR signal were monitored in real time, binding and dissociation processes were recorded, and a binding rate constant (ka) and a dissociation rate constant (kd) were further obtained through kinetic analysis, thereby calculating an equilibrium dissociation constant (KD=kd/ka).
A CM5 chip with a catalog number 29149603, an amino coupling reagent kit with a catalog number BR100050, HBS-EP+Buffer (10×), sodium acetate (pH 4.0), and a 10 mM glycine-HCl buffer (pH 2.0) were all purchased from GE Health.
CM5 chip coupling: Channels 2 and 4 of the CM5 chip were activated for 7 min by using a freshly-prepared mixture of 50 mM Hydroxy succinimide (NHS) and 200 mM 1-(3-Dimethylaminopropyl)-3-ethylcarbodiimide (EDC) according to 1:1; and then, hMPV-N46 or hPIV-N51 was diluted and dissolved with sodium acetate with 4.0 pH to a concentration of 30 μM, with a flow rate of 10 μl/min and time of 600 s. An experimental buffer was HBS-EP+buffer (1×). Finally, the chip was blocked with 1 M ethanolamine. The instrument was set to a temperature of 25° C.
Affinity detection: the buffer used in the experiment was HBS-EP+buffer (1×), and a multi-cycle dynamic mode was used. Channels 1 and 3 of the chip served as blank reference channels; polypeptides to be detected sequentially flowed through Channels 2 and 4 at concentrations of 0 μM, 0.04 µM, 0.12 µM, 0.37 μM, 1.11 µM, 3.33 µM, 10 µM, and 30 μM; the flow rate was 30 μl/min, binding was performed for 180 s, and dissociation was performed for 120 s. Finally, the chip was regenerated by injecting 10 mM glycine (pH 2.0). The instrument was set to a temperature of 25° C.

RSV A long virus strain = type: cell-based; details: RSV A long virus strain, HEp-2 cells, plaque reduction, 1 day; read-out: IC50
In short: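 HEp-2 cells (30000/well) infected with 100 PFU virus premixed 1 h with compound (8 concentrations, duplicate); after 2 h adsorption, cultured 1 day at 37 °C under 0.8% CMC overlay with compound. Plaques immunostained (RSV antibody, TrueBlue) and counted; IC50 and CC50 by non-linear fitting of % inhibition versus virus and cell controls.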

T1 sequence (Q6WB98 127-172): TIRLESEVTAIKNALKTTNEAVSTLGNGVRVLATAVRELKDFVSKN

`CC[C@H](C)[C@H](NC(=O)[C@H](CO)NC(=O)[C@H](C)NC(=O)[C@H](CC(=O)O)NC(=O)[C@H](Cc1ccccc1)NC(=O)[C@H](CCC(=O)O)NC(=O)[C@H](CC(=O)O)NC(=O)[C@H](Cc1c[nH]c2ccccc12)NC(C)=O)C(=O)N[C@@H](CCC(=O)O)C(=O)N[C@@H](CCC(=O)O)C(=O)N[C@H](C(=O)N[C@@H](CC(N)=O)C(=O)N[C@@H](CCCNC(=N)N)C(=O)N[C@@H](CCCNC(=N)N)C(=O)N[C@H](C(=O)N[C@@H](CCC(=O)O)C(=O)N[C@@H](CCC(=O)O)C(=O)N[C@@H](CO)C(=O)N[C@@H](CC(C)C)C(=O)N[C@@H](CCCNC(=N)N)C(=O)N[C@@H](CCCNC(=N)N)C(=O)N[C@H](C(=O)N[C@@H](CCC(=O)O)C(=O)N[C@@H](CCC(=O)O)C(=O)N[C@@H](CO)C(=O)N[C@@H](CC(=O)O)C(=O)N[C@@H](CCCNC(=N)N)C(=O)N[C@@H](CCCNC(=N)N)C(=O)N[C@@H](CC(C)C)C(=O)N[C@@H](CCC(=O)O)C(=O)N[C@@H](CCC(=O)O)C(=O)N[C@H](C(=O)N[C@@H](CCC(=O)O)C(=O)N[C@@H](C)C(=O)N[C@@H](C)C(=O)N[C@@H](C)C(=O)N[C@@H](CCCCN)C(=O)N[C@@H](CCCCNC(=O)CCC(=O)O[C@H]1CC[C@@]2(C)C(=CC[C@H]3[C@@H]4CC[C@H]([C@H](C)CCCC(C)C)[C@@]4(C)CC[C@@H]32)C1)C(N)=O)C(C)C)[C@@H](C)CC)[C@@H](C)CC)C(C)C` [Compound 43] (Ac-WDEFDASIEEVNRRIEESLRRIEESDRRLEEVEAAAKK(Succinyl(4-O-cholesteryl))-NH2) gave a Kd (hMPV-N46 (127-172)) of 71400 nM and an IC50 (RSV A long virus strain) of 18.3 nM.

In the case of `CC[C@H](C)[C@H](NC(=O)[C@H](CCCCN)NC(=O)[C@H](CCCCN)NC(=O)[C@H](CC(C)C)NC(=O)[C@H](CO)NC(=O)[C@H](CCC(=O)O)NC(=O)[C@H](CCC(=O)O)NC(=O)[C@@H](NC(=O)[C@H](CCCCN)NC(=O)[C@H](CCCCN)NC(=O)[C@H](CC(N)=O)NC(=O)[C@@H](NC(=O)[C@H](CCC(=O)O)NC(=O)[C@H](CCC(=O)O)NC(=O)[C@@H](NC(=O)[C@H](CCCCN)NC(=O)[C@H](CCCCN)NC(=O)[C@H](CC(=O)O)NC(=O)[C@H](Cc1ccccc1)NC(=O)[C@H](CCC(=O)O)NC(=O)[C@H](CC(=O)O)NC(=O)[C@H](Cc1c[nH]c2ccccc12)NC(C)=O)[C@@H](C)CC)C(C)C)[C@@H](C)CC)C(=O)N[C@@H](CCC(=O)O)C(=O)N[C@@H](CCC(=O)O)C(=O)N[C@@H](CO)C(=O)N[C@@H](CC(=O)O)C(=O)N[C@@H](CCCCN)C(=O)N[C@@H](CCCCN)C(=O)N[C@@H](CC(C)C)C(=O)N[C@@H](Cc1c[nH]cn1)C(=O)N[C@@H](CC(N)=O)C(=O)N[C@H](C(=O)N[C@@H](CCC(=O)O)C(=O)N[C@@H](C)C(=O)N[C@@H](C)C(=O)N[C@@H](C)C(=O)N[C@@H](CCCCN)C(=O)N[C@@H](CCCCNC(=O)CCC(=O)O[C@H]1CC[C@@]2(C)C(=CC[C@H]3[C@@H]4CC[C@H]([C@H](C)CCCC(C)C)[C@@]4(C)CC[C@@H]32)C1)C(N)=O)C(C)C` [Compound 44] (Ac-WDEFDKKIEEVNKKIEESLKKIEESDKKLHNVEAAAKK(Succinyl(4-O-cholesteryl))-NH2), the Kd (hMPV-N46 (127-172)) is reported as 149 nM and the IC50 (RSV A long virus strain) is reported as 12.4 nM.

Work on `CC[C@H](C)[C@H](NC(=O)[C@H](CO)NC(=O)[C@H](C)NC(=O)[C@H](CC(=O)O)NC(=O)[C@H](Cc1ccccc1)NC(=O)[C@H](CCC(=O)O)NC(=O)[C@H](CC(=O)O)NC(=O)[C@H](Cc1c[nH]c2ccccc12)NC(C)=O)C(=O)N[C@@H](CO)C(=O)N[C@@H](CCC(N)=O)C(=O)N[C@H](C(=O)N[C@@H](CC(N)=O)C(=O)N[C@@H](CCC(=O)O)C(=O)N[C@@H](CCCCN)C(=O)N[C@H](C(=O)N[C@@H](CC(N)=O)C(=O)N[C@@H](CCC(N)=O)C(=O)N[C@@H](CO)C(=O)N[C@@H](CC(C)C)C(=O)N[C@@H](CCC(=O)O)C(=O)N[C@@H](CCC(=O)O)C(=O)N[C@H](C(=O)N[C@@H](CCCNC(=N)N)C(=O)N[C@@H](CCCCN)C(=O)N[C@@H](CO)C(=O)N[C@@H](CC(=O)O)C(=O)N[C@@H](CCC(=O)O)C(=O)N[C@@H](CC(C)C)C(=O)N[C@@H](CC(C)C)C(=O)N[C@@H](Cc1c[nH]cn1)C(=O)N[C@@H](CC(N)=O)C(=O)N[C@@H](CCC(=O)O)C(=O)N[C@@H](C)C(=O)N[C@@H](C)C(=O)N[C@@H](C)C(=O)N[C@@H](CCCCN)C(=O)N[C@@H](CCCCNC(=O)CCC(=O)O[C@H]1CC[C@@]2(C)C(=CC[C@H]3[C@@H]4CC[C@H]([C@H](C)CCCC(C)C)[C@@]4(C)CC[C@@H]32)C1)C(N)=O)[C@@H](C)CC)[C@@H](C)CC)C(C)C` [Compound 45] (Ac-WDEFDASISQVNEKINQSLEEIRKSDELLHNEAAAKK(Succinyl(4-O-cholesteryl))-NH2) yielded a Kd (hMPV-N46 (127-172)) of 70600 nM and an IC50 (RSV A long virus strain) of 12.2 nM.

`CC[C@H](C)[C@H](NC(=O)[C@H](CCCCN)NC(=O)[C@H](CCCCN)NC(=O)[C@H](CC(C)C)NC(=O)[C@H](CO)NC(=O)[C@H](CCC(N)=O)NC(=O)[C@H](CC(N)=O)NC(=O)[C@@H](NC(=O)[C@H](CCCCN)NC(=O)[C@H](CCCCN)NC(=O)[C@H](CC(=O)O)NC(=O)[C@H](Cc1ccccc1)NC(=O)[C@H](CCC(=O)O)NC(=O)[C@@H](NC(=O)[C@H](CCCCN)NC(=O)[C@H](CCCCN)NC(=O)[C@H](CC(N)=O)NC(=O)[C@@H](NC(=O)[C@H](CC(C)C)NC(=O)[C@H](CCC(=O)O)NC(=O)[C@H](CC(=O)O)NC(=O)[C@H](CO)NC(C)=O)C(C)C)[C@@H](C)CC)[C@@H](C)CC)C(=O)N[C@@H](CCC(=O)O)C(=O)N[C@@H](CCC(=O)O)C(=O)N[C@@H](CO)C(=O)N[C@@H](CC(=O)O)C(=O)N[C@@H](CCCCN)C(=O)N[C@@H](CCCCN)C(=O)N[C@@H](CCCCN)C(=O)N[C@@H](CC(C)C)C(=O)N[C@@H](CCC(=O)O)C(=O)N[C@@H](C)C(=O)N[C@@H](C)C(=O)N[C@@H](C)C(=O)N[C@@H](CCCCN)C(=O)N[C@@H](CCCCN)C(N)=O` [Compound 51] (Ac-SDELVNKKIEFDKKINQSLKKIEESDKKKLEAAAKK-NH2) showed a Kd (hMPV-N46 (127-172)) of 14.4 nM and an IC50 (RSV A long virus strain) of 9.9 nM.

“Ac-FDEEISQVNEKINQSLAFIRKSDELLHNVNAGKSTTEAAAKK(Succinyl(4-O-cholesteryl))-NH2 [Compound 26]” was tested, and the Kd (hMPV-N46 (127-172)) was 2150 nM and the IC50 (RSV A long virus strain) was 12.8 nM.

“Ac-LVKKIDEFDASISQVNEKINQSLEEIRKSDELLHNVGSGSGK(Succinyl(4-O-cholesteryl))-NH2 [Compound 29]” showed a Kd (hMPV-N46 (127-172)) of 48.2 nM and an IC50 (RSV A long virus strain) of 19.3 nM.

“Ac-WDEFDASISQVNEKINQSLEEIRKSDELLHNVNAGLGSGSGK(Succinyl(4-O-cholesteryl))-NH2 [Compound 27]” was tested, and the Kd (hMPV-N46 (127-172)) was 2920 nM and the IC50 (RSV A long virus strain) was 25.7 nM.

For “Ac-WDEFDASISQVNEKINQSLEEIRKSDELLHNVNALEAAAKK(Succinyl(4-O-cholesteryl))-NH2 [Compound 38]”, the Kd (hMPV-N46 (127-172)) was 392 nM and the IC50 (RSV A long virus strain) was 14.6 nM.
